Test system: Leishmania tropica
Test: Growth inhibition of multidrug-resistant Leishmania tropica overexpressing P-glycoprotein-like transporter at 60 uM
Format: functional
Set-up: scale not given: the % may be the effect or the level left

**Q.** Which Activity does the source give for `CC(=O)OC[C@]12[C@H](OC(C)=O)C(=O)[C@@H]3[C@@H](OC(C)=O)[C@]1(O[C@@]3(C)COC(C)=O)[C@@](C)(O)[C@@H](OC(C)=O)[C@H](OC(C)=O)[C@@H]2OC(C)=O` here?
**A.** Its Activity is 28%.

— ChEMBL document CHEMBL1159375, “Absolute configuration and complete assignment of 13C NMR data for new sesquiterpenes from Maytenus chiapensis” (2003)
